PubChem BioAssay (NCI)
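Assay format: 96-well plates, 48-hour exposure. Definition used: TGI = concentration required for complete inhibition of growth.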

Tests used:
Experiment in all cases: NCI tumour cell line growth inhibition, 48 h
HCC-2998 colon = system: HCC-2998 colon
SF-539 CNS = system: SF-539 CNS
RPMI-8226 leukemia = system: RPMI-8226 leukemia
SF-268 CNS = system: SF-268 CNS
MDA-MB-231 breast = system: MDA-MB-231 breast
OVCAR-5 ovarian = system: OVCAR-5 ovarian
UACC-62 melanoma = system: UACC-62 melanoma
OVCAR-4 ovarian = system: OVCAR-4 ovarian
K-562 leukemia = system: K-562 leukemia
EKVX NSCLC = system: EKVX NSCLC

SMILES | TGI (HCC-2998 colon) [µM] | TGI (SF-539 CNS) [µM] | TGI (RPMI-8226 leukemia) [µM] | TGI (SF-268 CNS) [µM] | TGI (MDA-MB-231 breast) [µM] | TGI (OVCAR-5 ovarian) [µM] | TGI (UACC-62 melanoma) [µM] | TGI (OVCAR-4 ovarian) [µM] | TGI (K-562 leukemia) [µM] | TGI (EKVX NSCLC) [µM]
CC(C)(C)NC(NC(C)(C)C)=C(/C=C(/Cl)[N+](=O)[O-])[N+](=O)[O-] | > 100 | > 100 | > 100 | > 100 | > 100 | > 100 | > 100 | > 100 | > 100 | > 100
CC(C)CC1C(=O)NCCC(NC(=O)C(Cc2ccc(OC(C)(C)C)cc2)NC(=O)OC(C)(C)C)C(=O)NC(Cc2ccccc2)C(=O)NC(Cc2ccccc2)NC1=O (stereo not drawn) | 35.4 | 44.9 | 54.4 | 36.1 | 19.9 | 21.2 | 31.1 | 34.6 | 10.3 | 39.1
COC(=O)CC(C#N)(OP1(=O)OC(c2ccccc2)C(C)N1C)c1ccccc1 (stereo not drawn) | 31.6 | > 100 | 70.2 | > 100 | > 100 | 69.6 | 56.9 | – | 78.7 | 60.3
CC1=CC(C)C/C=C/C2C3OC3(C)C(C)C3C(Cc4c[nH]c5ccccc45)NC(=O)C23C(=O)C=CC(=O)C1O (stereo not drawn) | 21.7 | 29.8 | 5.06 | 40.7 | 16.9 | 27.5 | 29.1 | 24.3 | > 100 | 14.7
Cc1cc(C)n2nc3nc(N)c(C#N)c(-c4ccccc4)c3c2n1 | > 100 | > 100 | > 100 | > 100 | > 100 | > 100 | > 100 | > 100 | > 100 | > 100
CCCCN(CCCC)CC(O)c1cc(-c2ccc(C(F)(F)F)cc2)nc(-c2ccc(C(F)(F)F)cc2)c1 (stereo not drawn) | 65.6 | > 100 | > 100 | > 100 | > 100 | > 100 | > 100 | > 100 | > 100 | > 100
OC1[C@@H]2[C@@H](O)[C@H](O)[C@@H](O)N2C[C@@H]1O (stereo partly drawn) | > 100 | > 100 | > 23.5 | > 100 | > 100 | > 100 | > 100 | > 100 | > 100 | > 100
COc1cc(C2SCC(=O)N2c2ccccn2)cc(OC)c1OC (stereo not drawn) | > 100 | > 100 | > 100 | > 100 | > 100 | > 100 | > 100 | > 100 | > 100 | > 100
COC(=O)C1=C(C)NC2=C(C(=O)c3ccccc32)C1c1cn(-c2ccccc2)nc1-c1ccccc1 (stereo not drawn) | > 100 | > 100 | > 100 | > 100 | > 100 | > 100 | > 100 | > 100 | > 100 | > 100
CC(=O)N(C)c1ccc(Nc2cc(C)[nH]c3ccc4ncnc4c23)cc1 | 22.3 | 18.6 | 82.7 | 38.7 | 30.4 | 29.4 | 31.8 | 34 | 74 | 50.5
COc1cc(/C=C2\C[C@H]3[C@@H]4CCc5cc(O)ccc5[C@H]4CC[C@]3(C)C2=O)cc(OC)c1OC | 35.9 | 90.5 | 28.9 | 24 | 43.9 | 38.6 | 52.2 | 72.8 | 24.8 | 23.7
C=C1C(=O)C[C@H]2C(=C)C(=O)O[C@@H]2C2C1CC[C@@]2(C)O (stereo partly drawn) | 38.1 | > 100 | > 100 | > 100 | 75.2 | > 100 | 31.2 | – | > 100 | > 100
Cc1cc(C)nc(NC(=O)c2ccc(Br)s2)c1 | > 100 | > 100 | 16.6 | > 100 | 81.6 | 62.4 | > 100 | > 100 | > 100 | > 100
c1nc(OCC2CCCCC2)c2[nH]cnc2n1 | > 100 | > 100 | > 100 | > 100 | > 100 | > 100 | > 100 | > 100 | > 100 | > 100
CCOC(=O)c1c(NC(=O)c2cccs2)sc2c1CCCC2 | > 100 | 57.4 | > 100 | 73.6 | 69.8 | > 100 | > 100 | > 100 | > 100 | > 100
CCOC(=O)C1=C(C)N(Cc2ccc(Cl)cc2Cl)C2(O)C=CC(=O)C3C(=O)N(c4ccccc4)C(=O)C132 (stereo not drawn) | 3.54 | 5.38 | 2.18 | 11.3 | 6.44 | 22.3 | 3.74 | 4.2 | 4.04 | 4.35
Nc1c2c(nc3cc(F)c(F)cc13)CCC2 | 35.1 | > 100 | > 100 | > 100 | > 100 | > 100 | > 100 | > 100 | > 100 | > 100
COc1ccc(N2C(=O)C(=O)N(c3ccccc3[N+](=O)[O-])C2=S)cc1 | > 100 | 88.3 | 94.2 | > 100 | > 100 | 63.4 | 32.5 | 58.5 | > 100 | > 100
